# In ChEMBL document CHEMBL5620346, “Current scenario of pyrazole hybrids with in vivo therapeutic potential against cancers” (Eur J Med Chem, 2023):
# Assays:
# [1] = […] in mouse xenografted with human NCI-H526 cells assessed as reduction in tumor growth at 3 mg/kg, po relative to control; format: organism-based; details: in vivo
# [2] = target: Vascular endothelial growth factor receptor 1 (Homo sapiens, UniProt P17948); experiment: Inhibition of VEGFR1 (unknown origin)
# [3] = target: Vascular endothelial growth factor receptor 2 (Homo sapiens, UniProt P35968); experiment: Inhibition of VEGFR2 (unknown origin)
# Sequence of Vascular endothelial growth factor receptor 2 (P35968 whole entry): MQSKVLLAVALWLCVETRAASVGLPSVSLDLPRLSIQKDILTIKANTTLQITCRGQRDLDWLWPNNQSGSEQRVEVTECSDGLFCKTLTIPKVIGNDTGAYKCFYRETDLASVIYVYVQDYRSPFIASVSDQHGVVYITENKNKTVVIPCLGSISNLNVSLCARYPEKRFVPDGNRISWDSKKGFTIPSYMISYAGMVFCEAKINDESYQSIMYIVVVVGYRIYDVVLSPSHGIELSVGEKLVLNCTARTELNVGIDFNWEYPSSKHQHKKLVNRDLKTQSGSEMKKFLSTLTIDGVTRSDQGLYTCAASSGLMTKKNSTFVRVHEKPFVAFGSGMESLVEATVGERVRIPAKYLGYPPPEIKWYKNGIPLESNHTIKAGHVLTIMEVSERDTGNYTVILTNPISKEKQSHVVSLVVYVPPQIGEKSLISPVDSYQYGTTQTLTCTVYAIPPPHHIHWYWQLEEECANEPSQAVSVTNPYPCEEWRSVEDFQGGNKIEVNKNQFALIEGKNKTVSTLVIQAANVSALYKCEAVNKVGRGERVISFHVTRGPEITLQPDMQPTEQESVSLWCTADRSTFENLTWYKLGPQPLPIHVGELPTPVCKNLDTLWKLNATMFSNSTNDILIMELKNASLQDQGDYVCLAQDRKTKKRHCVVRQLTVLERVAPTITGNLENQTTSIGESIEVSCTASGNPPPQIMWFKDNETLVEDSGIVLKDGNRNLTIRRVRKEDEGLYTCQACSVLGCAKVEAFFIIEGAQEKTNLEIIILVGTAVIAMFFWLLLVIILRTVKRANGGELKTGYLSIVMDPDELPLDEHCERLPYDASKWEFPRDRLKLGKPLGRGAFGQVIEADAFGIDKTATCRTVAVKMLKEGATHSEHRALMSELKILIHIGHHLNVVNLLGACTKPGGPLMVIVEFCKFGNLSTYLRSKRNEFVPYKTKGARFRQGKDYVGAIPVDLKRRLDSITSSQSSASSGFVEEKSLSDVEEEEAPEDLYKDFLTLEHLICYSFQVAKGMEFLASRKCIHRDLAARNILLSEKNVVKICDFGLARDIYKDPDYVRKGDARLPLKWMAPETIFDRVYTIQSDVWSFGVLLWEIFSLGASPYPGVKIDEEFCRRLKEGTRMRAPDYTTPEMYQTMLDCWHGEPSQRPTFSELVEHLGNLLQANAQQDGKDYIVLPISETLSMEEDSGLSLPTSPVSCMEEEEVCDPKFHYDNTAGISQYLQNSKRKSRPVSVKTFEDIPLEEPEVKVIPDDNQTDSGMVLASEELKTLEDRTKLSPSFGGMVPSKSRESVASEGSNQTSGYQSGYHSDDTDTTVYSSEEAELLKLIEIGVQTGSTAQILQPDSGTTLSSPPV
# [4] = tested on: SNU-16; experiment: Antiproliferative activity against human SNU-16 cells assessed as reduction in cell viability by SRB assay; format: functional, cell-based
# [5] = tested on: KG-1; experiment: Antiproliferative activity against human KG-1 cells assessed as reduction in cell viability by SRB assay
# [6] = tested on: NCI-H1581; experiment: Antiproliferative activity against human NCI-H1581 cells assessed as reduction in cell viability by SRB assay; format: functional, cell-based
# [7] = Antiproliferative activity against human UMUC14 cells assessed as reduction in cell viability by SRB assay; format: functional, cell-based
# [8] = Cmax in CD-1 mouse at 3 mg/kg, ip measured after 24 hrs by LC-MS/MS analysis; format: ADME, organism-based; details: in vivo
# [9] = AUC (0 to infinity) in CD-1 mouse at 3 mg/kg, ip measured after 24 hrs by LC-MS/MS analysis; format: ADME, organism-based; details: in vivo
# [10] = Half life in CD-1 mouse at 3 mg/kg, ip measured after 24 hrs by LC-MS/MS analysis; format: ADME, organism-based; details: in vivo
# [11] = tested on: NCI-H1581; experiment: Antitumor activity against human NCI-H1581 cells xenografted in BALB/c nude mouse assessed as tumor growth inhibition once daily at 50 mg/kg, ip for 24 days relative to control; details: NCI-H1581, 576 h, read-out: TGI
# [12] = tested on: NCI-H1581; experiment: Antitumor activity against human NCI-H1581 cells xenografted in BALB/c nude mouse assessed as tumor growth inhibition once daily at 10 mg/kg, ip for 24 days relative to control; details: NCI-H1581, 576 h, read-out: TGI
# [13] = tested on: MCF7; experiment: Cytotoxicity against human MCF7 cells assessed as reduction in cell viability incubated for 48 hrs by MTT assay; format: functional, cell-based; details: MCF7, 48 h
# [14] = tested on: K562; experiment: Cytotoxicity against human K562 cells assessed as reduction in cell viability incubated for 48 hrs by MTT assay; format: functional, cell-based; details: K562, 48 h
# [15] = tested on: HT-29; experiment: Cytotoxicity against human HT-29 cells assessed as reduction in cell viability incubated for 48 hrs by MTT assay; format: functional, cell-based; details: HT-29, 48 h
# [16] = tested on: HT-29; experiment: Antitumor activity against human HT-29 cells xenografted in BALB/c mouse assessed as reduction in tumor growth at 25 mg/kg, ip relative to control; format: functional; parameters: scale not given: the % may be the effect or the level left
# [17] = tested on: HCT-116; experiment: Antiproliferative activity against human HCT-116 cells assessed as reduction in cell growth incubated for 72 hrs by SRB assay; format: functional, cell-based; details: HCT-116, 72 h
# [18] = tested on: HepG2; experiment: Antiproliferative activity against human HepG2 cells assessed as reduction in cell growth incubated for 72 hrs by SRB assay; format: functional, cell-based; details: HepG2, 72 h
# [19] = tested on: NCI-H1975; experiment: Antiproliferative activity against human NCI-H1975 cells assessed as reduction in cell growth incubated for 72 hrs by SRB assay; format: functional, cell-based; details: NCI-H1975, 72 h
# [20] = Antiproliferative activity against human 95-D cells assessed as reduction in cell growth incubated for 72 hrs by SRB assay; format: functional, cell-based
# [21] = tested on: PANC-1; experiment: Antiproliferative activity against human PANC-1 cells assessed as reduction in cell growth incubated for 72 hrs by SRB assay; format: functional, cell-based; details: PANC-1, 72 h
# [22] = tested on: MDA-MB-231; experiment: Antiproliferative activity against human MDA-MB-231 cells assessed as reduction in cell growth incubated for 72 hrs by SRB assay; format: functional, cell-based; details: MDA-MB-231, 72 h
# [23] = tested on: Bel-7402; experiment: Antiproliferative activity against human Bel-7402 cells assessed as reduction in cell growth incubated for 72 hrs by SRB assay; format: functional, cell-based; details: Bel-7402, 72 h
# [24] = tested on: NCI-H1299; experiment: Antiproliferative activity against human NCI-H1299 cells assessed as reduction in cell growth incubated for 72 hrs by SRB assay; format: functional, cell-based; details: NCI-H1299, 72 h
# [25] = tested on: SK-OV-3; experiment: Antiproliferative activity against human SK-OV-3 cells assessed as reduction in cell growth incubated for 72 hrs by SRB assay; format: functional, cell-based; details: SK-OV-3, 72 h
# [26] = tested on: K562; experiment: Antiproliferative activity against human K562 cells assessed as reduction in cell growth incubated for 72 hrs by SRB assay; format: functional, cell-based; details: K562, 72 h
# [27] = tested on: U-87 MG; experiment: Antiproliferative activity against human U87 cells assessed as reduction in cell growth incubated for 72 hrs by SRB assay; format: functional, cell-based, U-87MG ATCC
# [28] = Cytotoxicity against human NCM460 cells assessed as reduction in cell viability incubated for 48 hrs by MTT assay; format: toxicity, cell-based
# [29] = Antiproliferative activity against HUVEC cells assessed as cell growth inhibition measured after 72 hrs by crystal violet staining based analysis; format: toxicity; details: human
# [30] = tested on: HCT-116; experiment: Antitumor activity against human HCT-116 cells xenografted in BALB/c nude mouse assessed as tumor growth inhibition at 25 mg/kg, po administered once a daily for 13 consecutive days relative to control; format: functional; details: read-out: TGI
# [31] = tested on: HCT-116; experiment: Antitumor activity against human HCT-116 cells xenografted in BALB/c nude mouse assessed as tumor growth inhibition at 50 mg/kg, po administered once a daily for 13 consecutive days relative to control; format: functional; details: read-out: TGI
# [32] = tested on: B16-F10; experiment: Antitumor activity against mouse B16-F10 cells implanted in C57BL/6 mouse assessed tumor growth inhibition at 2.5 mg/kg, ip measured for 14 days relative to control; format: functional; details: B16-F10, 336 h, time 14 day, read-out: TGI
# [33] = tested on: B16-F10; experiment: Antiproliferative activity against mouse B16-F10 cells assessed as reduction in cell proliferation incubated for 4 days by crystal violet based assay; format: functional; details: B16-F10, 96 h
# [34] = tested on: MDA-MB-231; experiment: Antiproliferative activity against human MDA-MB-231 cells assessed as reduction in cell viability incubated for 48 hrs by MTT assay; format: functional, cell-based; details: MDA-MB-231, 48 h
# [35] = tested on: COLO357; experiment: Inhibition of cell growth in human COLO357 cells incubated for 72 hrs by MTT assay; format: functional, cell-based; details: COLO357, 72 h
# [36] = tested on: MIA PaCa-2; experiment: Antiproliferative activity against human MIA PaCa-2 cells measured after 72 hrs by MTT assay; format: functional, cell-based; details: MIA PaCa-2, 72 h
# [37] = tested on: PANC-1; experiment: Anticancer activity against human PANC-1 cells assessed as reduction in cell viability by measuring ATP level incubated for 24 hrs by CellTiter-Glo assay; format: functional, cell-based; details: PANC-1, 24 h
# [38] = tested on: Panc02; experiment: Antiproliferative activity against mouse Panc02 cells measured after 72 hrs by MTT assay; format: functional, cell-based; details: Panc02, 72 h
# [39] = tested on: T47D; experiment: Antiproliferative activity against human T47D cells assessed as reduction in cell viability incubated for 72 hrs by MTT assay; format: functional, cell-based
# [40] = tested on: BT-549; experiment: Antiproliferative activity against human BT-549 cells assessed as inhibition of cell proliferation incubated for 72 hrs by MTT assay; format: functional, cell-based; details: BT-549, 72 h
# [41] = tested on: MCF7; experiment: Antiproliferative activity against human MCF7 cells assessed as reduction in cell viability incubated for 72 hrs by MTT assay; format: functional, cell-based; details: MCF7, 72 h
# [42] = tested on: MDA-MB-453; experiment: Antiproliferative activity against human MDA-MB-453 cells assessed as reduction in cell viability incubated for 72 hrs by MTT assay; format: functional, cell-based; details: MDA-MB-453, 72 h
# [43] = tested on: MDA-MB-231; experiment: Antiproliferative activity against human MDA-MB-231 cells assessed as reduction in cell viability incubated for 72 hrs by MTT assay; format: functional, cell-based; details: MDA-MB-231, 72 h
# [44] = tested on: BT-549; experiment: Antitumor activity against human BT-549 cells xenografted in BALB/c nude mouse assessed as tumor growth inhibition at 30 mg/kg, sc administered for 20 days relative to control; format: functional; details: BT-549, 480 h, time 20 day, read-out: TGI
# [45] = tested on: MCF7; experiment: Antiproliferative activity against human MCF7 cells assessed as reduction in cell viability incubated for 48 hrs by MTT assay; format: functional, cell-based; details: MCF7, 48 h
# [46] = tested on: HT-29; experiment: Antitumor activity against human HT-29 cells xenografted in BALB/c mouse assessed as reduction in tumor growth at 50 mg/kg, po administered once daily for 14 days relative to control; format: functional; details: HT-29, 336 h, time 14 day, read-out: TGI
# [47] = tested on: HT-29; experiment: Antitumor activity against human HT-29 cells xenografted in BALB/c mouse assessed as reduction in tumor growth at 50 mg/kg, ip administered once daily for 14 days relative to control; format: functional; details: HT-29, 336 h, time 14 day, read-out: TGI
# [48] = tested on: T47D; experiment: Antitumor activity against human T47D cells xenografted in nude BALB/c mouse assessed as tumor growth inhibition at 20 mg/kg administered via oral gavage for 20 days relative to control; format: functional; details: 480 h, time 20 day, read-out: TGI
# [49] = tested on: T47D; experiment: Antitumor activity against human T47D cells xenografted in nude BALB/c mouse assessed as tumor growth inhibition at 40 mg/kg administered via oral gavage for 20 days relative to control; format: functional; details: 480 h, time 20 day, read-out: TGI
# Sequence of Vascular endothelial growth factor receptor 1 (P17948 whole entry): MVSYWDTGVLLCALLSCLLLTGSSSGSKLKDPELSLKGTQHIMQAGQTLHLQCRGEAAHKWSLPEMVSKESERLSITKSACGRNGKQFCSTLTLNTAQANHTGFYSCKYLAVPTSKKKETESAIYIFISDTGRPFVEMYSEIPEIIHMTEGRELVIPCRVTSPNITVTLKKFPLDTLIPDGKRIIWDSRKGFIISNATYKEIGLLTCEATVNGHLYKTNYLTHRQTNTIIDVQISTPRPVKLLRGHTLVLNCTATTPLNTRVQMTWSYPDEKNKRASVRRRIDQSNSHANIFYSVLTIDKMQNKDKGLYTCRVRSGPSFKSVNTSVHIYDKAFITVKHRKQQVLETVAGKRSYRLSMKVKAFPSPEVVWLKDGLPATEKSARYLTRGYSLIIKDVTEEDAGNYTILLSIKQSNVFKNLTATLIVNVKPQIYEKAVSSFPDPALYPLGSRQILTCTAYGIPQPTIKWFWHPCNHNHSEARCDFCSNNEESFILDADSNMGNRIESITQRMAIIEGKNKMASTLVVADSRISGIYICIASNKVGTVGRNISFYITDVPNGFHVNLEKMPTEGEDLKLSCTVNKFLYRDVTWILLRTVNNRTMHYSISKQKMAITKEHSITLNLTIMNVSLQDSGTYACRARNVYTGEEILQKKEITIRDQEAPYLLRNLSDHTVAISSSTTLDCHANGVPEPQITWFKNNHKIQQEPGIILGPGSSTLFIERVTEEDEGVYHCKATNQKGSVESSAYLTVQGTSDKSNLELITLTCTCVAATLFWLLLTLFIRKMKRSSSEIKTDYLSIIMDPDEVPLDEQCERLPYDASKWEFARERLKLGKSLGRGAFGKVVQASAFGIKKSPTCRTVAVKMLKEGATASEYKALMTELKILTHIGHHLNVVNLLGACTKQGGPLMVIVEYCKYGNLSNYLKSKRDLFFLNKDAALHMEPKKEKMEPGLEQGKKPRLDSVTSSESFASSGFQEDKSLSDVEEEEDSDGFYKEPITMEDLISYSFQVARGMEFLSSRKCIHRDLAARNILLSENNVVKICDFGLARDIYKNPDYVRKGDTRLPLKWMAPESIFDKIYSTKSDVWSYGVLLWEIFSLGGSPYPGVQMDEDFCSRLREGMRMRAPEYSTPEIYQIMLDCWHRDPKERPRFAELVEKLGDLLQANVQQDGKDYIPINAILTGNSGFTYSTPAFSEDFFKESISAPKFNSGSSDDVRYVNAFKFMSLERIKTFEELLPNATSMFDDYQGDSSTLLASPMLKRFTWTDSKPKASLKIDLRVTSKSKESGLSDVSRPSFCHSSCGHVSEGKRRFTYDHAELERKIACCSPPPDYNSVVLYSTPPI
compound,measurement,setting,value
Cc1nnn(C)c1-c1cnc2c3cc4cnn(C)c4cc3n([C@H](c3ccccc3)C3CCOCC3)c2c1,TGI,[1],100%
Cc1ccc2oc(-c3c4c(N)n[nH]c(=O)c4nn3-c3ccc(NC(=O)/C=C/CN(C)C)cc3)c(C)c2c1,IC50,[2],3 nM
same,IC50,[3],1.9 nM
same,IC50,[4],< 0.3 nM
same,IC50,[5],43 nM
same,IC50,[6],43 nM
same,IC50,[7],43 nM
same,Cmax,[8],282 ng/mL
same,AUC,[9],704 ng·h/mL
same,half-life,[10],3.7 h
same,inhibition in vivo at 50 mg/kg,[11],91.6%
same,inhibition in vivo at 10 mg/kg,[12],74.4%
O=C1NC(=O)/C(=C/c2ccc3cc(OCC(=O)N4N=C(c5ccc(F)cc5)CC4c4ccccc4Cl)ccc3c2)S1 (centres undefined),IC50,[13],8200 nM
same,IC50,[14],8200 nM
same,IC50,[15],8200 nM
same,Activity,[16],30%
CCOc1ccc(Oc2ccc(C3=NN(C4=NC(=O)CS4)C(c4cc(O)c(O)c(Br)c4Br)C3)cc2)cc1 (centres undefined),IC50,[17],2640 nM
same,IC50,[18],2640 nM
same,IC50,[19],2640 nM
same,IC50,[20],2640 nM
same,IC50,[21],2640 nM
same,IC50,[22],2640 nM
same,IC50,[23],2640 nM
same,IC50,[24],2640 nM
same,IC50,[25],2640 nM
same,IC50,[26],2640 nM
same,IC50,[27],2640 nM
same,IC50 at 48 h,[28],27100 nM
same,IC50 at 72 h,[29],28300 nM
same,inhibition in vivo at 25 mg/kg,[30],58.8%
same,inhibition in vivo at 50 mg/kg,[31],67.2%
Clc1ccccc1C(c1ccccc1)(c1ccc(CCC[P+](c2ccccc2)(c2ccccc2)c2ccccc2)cc1)n1cccn1 (centres undefined),inhibition in vivo at 2.5 mg/kg,[32],60%
same,IC50,[33],1310 nM
same,IC50,[34],1310 nM
same,IC50,[35],1310 nM
same,IC50,[36],1310 nM
same,IC50,[37],1310 nM
same,IC50,[38],1310 nM
CN(C)S(=O)(=O)Nc1cccc(-c2cnn(-c3ccc(C(F)(F)F)cc3)c2)c1,IC50,[39],3440 nM
same,IC50,[40],3440 nM
same,IC50,[41],3440 nM
same,IC50,[42],3440 nM
same,IC50,[43],3440 nM
same,inhibition in vivo at 30 mg/kg,[44],~50%
Cc1ccc(C2CC(c3ccc(F)cc3)=NN2C(=O)CN2C(=O)CCC2=O)cc1 (centres undefined),IC50,[45],780 nM
same,inhibition in vivo at 50 mg/kg,[46],60%
same,inhibition in vivo at 50 mg/kg,[47],66%
COc1ncc(-c2ccc3ncnc(Nc4cnn(CCO)c4)c3c2)cc1NS(=O)(=O)c1ccc(F)cc1F,inhibition in vivo at 20 mg/kg,[48],54.1%
same,inhibition in vivo at 40 mg/kg,[49],84.1%
